Where two headings read alike, the source gives them in different places.
Legend:
[1] = tested on: cultured hippocampal neurons; assay: Synaptic loss and process degeneration in cultured hippocampal neurons (dominant-negative Nmnat1); assay type: cell-based; settings: 50-200 μM, up to 72 hr
Excerpt: We next attempted to examine whether decreasing NAD levels can induce similar “dying-back” axon degeneration in neurons with established synaptic connections. Such experiments might allow us to assess whether the degenerative processes in axons and other neuronal structures, including synaptic structures and dendritic processes, share similar mechanisms. To do this, we introduced both wild type and dominant negative Nmnat1 into cultured hippocampal neurons at 20 days in vitro (DIV 20), when their synaptic connections have formed and matured (Brewer et al. 1993), and examined their effects on axons as well as dendrites and synapses. As a conventional approach to visualize these neuronal structures, we also co-infected the hippocampal neurons with HSV expressing YFP. […] Moreover, neuronal NAD levels declined from 24-48 hr post-infection with viruses expressing dominant-negative Nmnat1 but not wild type Nmnat1 or YFP. Thus, we decided to focus our analysis on the first 60 hours post-infection.
To monitor changes in synaptic structures, we co-infected DIV20 neurons with HSV expressing YFP and wild type or the mutant Nmnat1, and quantified both spine density and the length and branching of axons and dendrites. As the density of dendritic spines has been considered a reliable indicator for synapse number (reviewed by Hering and Sheng, 2001), we performed high-resolution YFP imaging in neurons co-expressing YFP and Nmnat1 proteins at the indicated time points post-infection to measure the spine densities in these co-infected neurons. Dendrite length and branching patterns were analyzed using Sholl's method of regularly spaced concentric circles centered on the neuronal soma (Sholl, 1953). […]
In the experiments described above, we also performed immunostaining with antibodies against the presynaptic marker bassoon, and found a decrease of positively-stained synaptic structures. However, due to the complex morphology of the axons that makes it extremely difficult to quantify the axonal length in DIV20 hippocampal neurons, we […]. […]

[2] = tested on: EAE mice (wild type or Wlds); assay: Mouse EAE model, subcutaneous nicotinamide (Example 9 end, Example 12); assay type: in vivo; settings: for reduction of neural degeneration in EAE mice: daily from day of MOG immunization
Experimental: In initial experiments, we administered nicotinamide daily starting from the day of immunization by MOG peptide, and found efficacy in both 125 mg/kg and 500 mg/kg treatment groups. We have also examined groups of mice wherein initiation of nicotinamide administration was delayed until 10 days after the immunization by MOG peptide (delayed treatment group), to better model clinical conditions wherein patients typically begin treatment after onset of pathogenic autoimmunity.
In this example we administered NAm by daily subcutaneous injection at two different dosages (125 or 500 mg/kg, dissolved by PBS) starting from the day of MOG immunization. As a control, we administered the same volume of PBS into either wild type or Wld^s mice. The EAE models were induced following essentially the procedure described in Kalyvas et al (2004, Neuron 41, 323-335). Other protocols were adapted from Wang, et al. (2005) J. Cell. Biol. 170: 349-355.
We started treatments with NAm (500 mg/kg, daily subcutaneous injection) from 10 days P.I. when most of the animals already have clear clinical symptoms.

[3] = tested on: SOD1-G93A transgenic mice; assay type: in vivo; settings: for reduction of neural degeneration in ALS mice, behavioral testing: subcutaneous, daily from 10 weeks from birth
[4] = 500 mg/kg daily s.c. from 10 days P.I.
[5] = SOD1-G93A, nicotinamide diet from 7 wk of age

SMILES: NC(=O)c1cccnc1 [nicotinamide, 3-pyridinecarboxamide]
- dendritic spine quantity or structure, compound alone [1]: did not induce significant changes
- NAD levels, delayed treatment [2, 4]: increased NAD levels effectively
- further development of EAE symptoms, delayed treatment [2, 4]: efficiently attenuated further development of EAE symptoms
- number of degenerating axons, delayed treatment ([2]; 500 mg/kg daily s.c. from 10 days P.I., 8 weeks P.I.): significantly reduced the number of degenerating axons
- degenerating axons detected compared with untreated animals ([2]; Wlds mice, high dose): ~5%
- effect on EAE symptoms ([2]; Wlds mice, high dose 500 mg/kg): More dramatic improvements
- NAD levels at 2 and 4 weeks P.I. ([2]; Wlds mice, high dose (500 mg/kg) s.c.): remained at high levels
- axons remaining morphologically intact (Toluidine Blue) ([2]; Wlds mice, high dose, 8 weeks P.I.): ~90%
- NAD levels at 2 weeks P.I. ([2]; daily s.c. 125 or 500 mg/kg from day of MOG immunization): dramatically increased NAD levels in a dose-dependent manner
- reduction of neural degeneration in EAE mice ([2]; subcutaneous, 125 mg/kg): efficacy
- reduction of neural degeneration in EAE mice ([2]; subcutaneous, 500 mg/kg): efficacy
- neural degeneration versus matched controls, delayed treatment group ([2]; subcutaneous, started 10 days after MOG immunization): reduced neural degeneration
- axons in peripheral regions of the spinal cord ([2]; wild type EAE mice, high dose): increased numbers of demyelinated but preserved axons
- numbers of SMI-32-positive axons ([2]; wild type and Wlds mice, 2, 4 and 8 weeks P.I.): significantly reduced numbers
- onset and development of EAE symptoms ([2]; wild type mice, 125 or 500 mg/kg s.c. daily): ameliorated the onset and development of EAE symptoms in a dose-dependent manner
- NAD levels at 4 weeks P.I. ([2]; wild type mice, continuous daily s.c. administration): returned to near-normal levels
- degenerating axons detected compared with untreated animals ([2]; wild type mice, high dose): approximately 10%
- effect on EAE onset and severity ([2]; wild type mice, high dose 500 mg/kg): significant improvement
- axons remaining morphologically intact (Toluidine Blue) ([2]; wild type mice, high dose, 8 weeks P.I. (control wild type EAE 25%)): approximately 70%
- age at bilateral hindlimb paralysis ([3]; SOD1-G93A, both normal diet and nicotinamide diet): 127-157 days of age
- age through to which walking capacity is improved (grid walking test) ([3]; SOD1-G93A, nicotinamide diet): 124 days of age
- age through to which motor functions are preserved (Rotarod) ([3]; SOD1-G93A, nicotinamide diet (control diet onset 108 days)): 120 days of age
- onset of impairment in balance, coordination and muscle strength (Rotarod) [3, 5]: significantly delays the onset of impairment
- walking capacity (grid walking test) [3, 5]: significantly improves walking capacity
- Rotarod performance score (latency) ([3]; mouse, in vivo): 180 s
- body condition scoring (BCS) ([3]; mouse, in vivo): 3
- foot miss scores (grid walking test) ([3]; mouse, in vivo): 0
- general health and neurologic status (lacrimation/salivation, eye blink, ear twitch, pupillary response, whisker orienting reflex) ([3]; mouse, in vivo): no obvious differences
- reduction of neural degeneration in ALS mice, behavioral testing ([3]; 125 mg/kg): efficacy
- reduction of neural degeneration in ALS mice, behavioral testing ([3]; 500 mg/kg): efficacy

— patent US20060211744A1, “3-Pyridinecarboxamide reduces nerve degeneration” (Children's Medical Center, priority 2005, published 2006)
